Reference: paper PMC10302047, “Structure–Activity Relationship Studies of Indolglyoxyl-Polyamine Conjugates as Antimicrobials and Antibiotic Potentiators” (Pharmaceuticals, 2023)
≈ marks a conversion by molar mass, not a printed value.

How the values were obtained:
[1] = test system: C. albicans ATCC 90028; assay: Antifungal susceptibility (MIC), C. albicans; format: cell-based; conditions: Candida albicans, ATCC90028, mean (n = 2)
Method: (§1) The susceptibility of bacterial strains S. aureus (ATCC 25923), E. coli (ATCC 25922) and P. aeruginosa (ATCC 27853) to antibiotics and compounds was determined according to previously reported protocols. Additional antimicrobial evaluation against MRSA (ATCC 43300) and C. albicans (ATCC 90028) was undertaken at the Community for Open Antimicrobial Drug Discovery at The University of Queensland (Australia) according to their standard protocols as reported previously.

[2] = test system: S. aureus ATCC 25923; assay: Antimicrobial susceptibility (MIC), S. aureus; format: cell-based, Staphylococcus aureus; conditions: Staphylococcus aureus, ATCC25923; S. aureus ATCC 25923; mean (n = 3)
Method: as §1

[3] = test system: human red blood cells; assay: Hemolytic assay; format: cell-based; conditions: mean (n = 2)
Method: Hemolysis assays were conducted according to previously reported protocols.

[4] = test system: P. aeruginosa ATCC 27853; assay: Antimicrobial susceptibility (MIC), P. aeruginosa; format: cell-based; conditions: Pseudomonas aeruginosa, ATCC27853, mean (n = 3), read-out: MIC P. a
Method: as §1

[5] = test system: P. aeruginosa ATCC 27853; assay: Antibiotic potentiation (MIC of antibiotics in the presence of synergizing compounds), P. aeruginosa; format: cell-based, Pseudomonas aeruginosa; conditions: concentration required to restore doxycycline activity at 2 µg/mL (4.5 µM) against P. aeruginosa ATCC 27853
[6] = test system: E. coli ATCC 25922; assay: Antimicrobial susceptibility (MIC), E. coli; format: cell-based; conditions: Escherichia coli, ATCC25922, mean (n = 3)
Method: as §1

[7] = Cytotoxicity assay HEK293; format: cell-based, human; conditions: human, HEK293 cells, mean (n = 2), read-out: Cyto. IC50 (concentration of compound at 50% cytotoxicity)
Method: Cytotoxicity assays were conducted according to previously reported protocols.

[8] = test system: MRSA ATCC 43300; assay: Antimicrobial susceptibility (MIC), MRSA; format: cell-based; conditions: Staphylococcus aureus; MRSA ATCC 43300; mean (n = 2); read-out: MIC MRSA
Method: as §1

| MIC [1] | MIC [2] | MIC [4] | MIC [6] | MIC [8] | SMILES | Hem. HC10 (concentration of compound at 10% hemolytic activity) [3] | Conc (µM) for Potentiation of doxycycline [5] | IC50 [7] |
| --- | --- | --- | --- | --- | --- | --- | --- | --- |
| 37 µM | 57 µM | > 200 µM | > 200 µM | 37 µM | COc1ccc2[nH]cc(C(=O)C(=O)NCCCNCCCCCCCNCCCNC(=O)C(=O)c3c[nH]c4ccc(OC)cc34)c2c1.O=C(O)C(F)(F)F.O=C(O)C(F)(F)F [Compound 19b, N^1,N^7-Bis(3-(2-(5-methoxy-1H-indol-3-yl)-2-oxoacetamido)propyl)heptane-1,7-diaminium 2,2,2-trifluoroacetate] | >37 µM | 114 µM | > 37 µM |
| 36 µM (≈ 23.8 µg/mL) | > 100 µM | > 100 µM | > 100 µM | > 36 µM | COc1ccc2[nH]cc(C(=O)C(=O)NCCCNCCCCCCCCNCCCNC(=O)C(=O)c3c[nH]c4ccc(OC)cc34)c2c1 [Compound 19c] | 26 µM | 25 µM | 18 µM |
| 35 µM | 12.5 µM | > 200 µM | 50 µM | 17.4 µM | COc1ccc2[nH]cc(C(=O)C(=O)NCCCNCCCCCCCCCCNCCCNC(=O)C(=O)c3c[nH]c4ccc(OC)cc34)c2c1.O=C(O)C(F)(F)F.O=C(O)C(F)(F)F [Compound 19d, N^1,N^10-Bis(3-(2-(5-methoxy-1H-indol-3-yl)-2-oxoacetamido)propyl)decane-1,10-diaminium 2,2,2-trifluoroacetate] | >35 µM | >200 µM | 6.8 µM |
| 34 µM (≈ 24.4 µg/mL) | 12.5 µM (≈ 8.96 µg/mL) | > 200 µM | 100 µM (≈ 71.7 µg/mL) | 34 µM (≈ 24.4 µg/mL) | COc1ccc2[nH]cc(C(=O)C(=O)NCCCNCCCCCCCCCCCCNCCCNC(=O)C(=O)c3c[nH]c4ccc(OC)cc34)c2c1 [Compound 19e] | >34 µM | >200 µM | 8.6 µM |
| 38 µM | 7.3 µM | > 200 µM | > 200 µM | 18.8 µM | O=C(NCCCNCCCCCCCNCCCNC(=O)C(=O)c1c[nH]c2c(F)cccc12)C(=O)c1c[nH]c2c(F)cccc12.O=C(O)C(F)(F)F.O=C(O)C(F)(F)F [Compound 21b, N^1,N^7-Bis(3-(2-(7-fluoro-1H-indol-3-yl)-2-oxoacetamido)propyl)heptane-1,7-diaminium 2,2,2-trifluoroacetate] | >38 µM | 7.3 µM | 11 µM |
| > 37 µM | 29 µM | > 200 µM | > 200 µM | 18.5 µM | O=C(NCCCNCCCCCCCCNCCCNC(=O)C(=O)c1c[nH]c2c(F)cccc12)C(=O)c1c[nH]c2c(F)cccc12.O=C(O)C(F)(F)F.O=C(O)C(F)(F)F [Compound 21c, N^1,N^8-Bis(3-(2-(7-fluoro-1H-indol-3-yl)-2-oxoacetamido)propyl)octane-1,8-diaminium 2,2,2-trifluoroacetate] | >37 µM | 58 µM | 9.2 µM |

Second part, the compound before the results:

| SMILES | MIC [1] | MIC [2] | MIC [4] | MIC [6] | MIC [8] | Hem. HC10 (concentration of compound at 10% hemolytic activity) [3] | Conc (µM) for Potentiation of doxycycline [5] | IC50 [7] |
| --- | --- | --- | --- | --- | --- | --- | --- | --- |
| O=C(NCCCNCCCCCCCCNCCCNC(=O)C(=O)c1c[nH]c2ccccc12)C(=O)c1c[nH]c2ccccc12 [Compound 17c] | > 39 µM | 25 µM (≈ 15 µg/mL) | 100 µM (≈ 60.1 µg/mL) | 12.5 µM (≈ 7.51 µg/mL) | 39 µM (≈ 23.4 µg/mL) | >39 µM | 50 µM | 10 µM |
| O=C(NCCCNCCCCCCCCCCNCCCNC(=O)C(=O)c1c[nH]c2ccccc12)C(=O)c1c[nH]c2ccccc12.O=C(O)C(F)(F)F.O=C(O)C(F)(F)F [Compound 17d, N^1,N^10-Bis(3-(2-(1H-indol-3-yl)-2-oxoacetamido)propyl)decane-1,10-diaminium 2,2,2-trifluoroacetate] | 37 µM | 14.6 µM | 117 µM | 117 µM | 18.7 µM | >37 µM | 58 µM | 4.9 µM |
| O=C(NCCCNCCCCCCCCCCCCNCCCNC(=O)C(=O)c1c[nH]c2ccccc12)C(=O)c1c[nH]c2ccccc12 [Compound 17e] | 36 µM (≈ 23.6 µg/mL) | 25 µM (≈ 16.4 µg/mL) | > 200 µM | > 200 µM | 9.04 µM (≈ 5.94 µg/mL) | >36 µM | 6.25 µM | 5.6 µM |
| O=C(NCCCNCCCCCCNCCCNC(=O)C(=O)c1c[nH]c2ccc(Br)cc12)C(=O)c1c[nH]c2ccc(Br)cc12.O=C(O)C(F)(F)F.O=C(O)C(F)(F)F [Compound 18a, N^1,N^6-Bis(3-(2-(5-bromo-1H-indol-3-yl)-2-oxoacetamido)propyl)hexane-1,6-diaminium 2,2,2-trifluoroacetate] | 16.7 µM | 1.56 µM | 50 µM | 6.25 µM | 4.17 µM | >33 µM | 6.5 µM | 8.9 µM |
| O=C(NCCCNCCCCCCCNCCCNC(=O)C(=O)c1c[nH]c2ccc(Br)cc12)C(=O)c1c[nH]c2ccc(Br)cc12.O=C(O)C(F)(F)F.O=C(O)C(F)(F)F [Compound 18b, N^1,N^7-Bis(3-(2-(5-bromo-1H-indol-3-yl)-2-oxoacetamido)propyl)heptane-1,7-diaminium 2,2,2-trifluoroacetate] | 16 µM | 6.4 µM | 51 µM | 51 µM | 4.1 µM | >33 µM | 12.9 µM | 13 µM |
| O=C(NCCCNCCCCCCCCNCCCNC(=O)C(=O)c1c[nH]c2ccc(Br)cc12)C(=O)c1c[nH]c2ccc(Br)cc12.O=C(O)C(F)(F)F.O=C(O)C(F)(F)F [Compound 18c, N^1,N^8-Bis(3-(2-(5-bromo-1H-indol-3-yl)-2-oxoacetamido)propyl)octane-1,8-diaminium 2,2,2-trifluoroacetate] | 32 µM | 25 µM | > 200 µM | > 200 µM | 8.1 µM | >32 µM | >200 µM | 18 µM |
| O=C(NCCCNCCCCCCCCCCNCCCNC(=O)C(=O)c1c[nH]c2ccc(Br)cc12)C(=O)c1c[nH]c2ccc(Br)cc12.O=C(O)C(F)(F)F.O=C(O)C(F)(F)F [Compound 18d, N^1,N^10-Bis(3-(2-(5-bromo-1H-indol-3-yl)-2-oxoacetamido)propyl)decane-1,10-diaminium 2,2,2-trifluoroacetate] | 32 µM | 6.16 µM | 200 µM | 98 µM | 7.88 µM | >32 µM | 25 µM | 16 µM |
| O=C(NCCCNCCCCCCCCCCCCNCCCNC(=O)C(=O)c1c[nH]c2ccc(Br)cc12)C(=O)c1c[nH]c2ccc(Br)cc12.O=C(O)C(F)(F)F.O=C(O)C(F)(F)F [Compound 18e, N^1,N^12-Bis(3-(2-(5-bromo-1H-indol-3-yl)-2-oxoacetamido)propyl)dodecane-1,12-diaminium 2,2,2-trifluoroacetate] | 31 µM | 5.99 µM | 96 µM | 24 µM | 3.84 µM | 20 µM | 24 µM | 8.6 µM |
